Measurements: publication PMC7281072 (Cancers, 2020)
Read-outs that look alike come from different tables or passages of the source.

Assays:
[1] = tested on: SK-OV-3 cancer cell line; assay: cells; settings: Homo sapiens, SK-OV-3, 48 h
[2] = tested on: SKOV-3 human ovarian adenocarcinoma xenograft; design: species or system CB17 SCID mice; settings: mouse, in vivo
[3] = tested on: pERK1,2; assay: Western immunoblotting densitometry, pERK1,2, OVCAR-3 cells; assay type: cell-based, human; settings: 25 μM; for ratio [pERK1+pERK2]/[GAPDH] band intensity: OVCAR-3 cells; for ratio [pERK1+pERK2]/[GAPDH] band intensity, single blot (panel A): panel A upper set, cell line not given
[4] = tested on: SK-OV-3 cancer cell line
[5] = tested on: OVCAR-3 cancer cell line; assay: cells; settings: Homo sapiens, OVCAR-3, 48 h
[6] = tested on: AKT1,2 phosphorylation; assay: AKT phosphorylation ELISA, OVCAR-5 cells; assay type: cell-based, human; settings: for Vmax ± SE, pAKT 1/2 inhibition: Michaelis Menten model; for IC50: Homo sapiens, read-out: IC50, pAKT 1/2 inhibition
[7] = tested on: CB17 SCID mice; settings: both, mouse, in vivo, ip
[8] = tested on: UWB1.289+BRCA1 cancer cell line; assay: cells; settings: Homo sapiens, 48 h
[9] = tested on: OVCAR-5 cancer cell line; assay: cells; settings: Homo sapiens, OVCAR-5, 48 h
[10] = tested on: ERK1,2 phosphorylation; assay: ERK1/2 phosphorylation ELISA, UWB1.289 cells; assay type: cell-based, human; settings: for Vmax ± SE, pERK 1/2 inhibition: Michaelis Menten model; for IC50: Homo sapiens, read-out: IC50, pERK 1/2 inhibition
[11] = tested on: ERK1,2 phosphorylation; assay: ERK1/2 phosphorylation ELISA, OVCAR-3 cells; assay type: cell-based, human; settings: for Vmax ± SE, pERK 1/2 inhibition: Michaelis Menten model; for IC50: Homo sapiens, read-out: IC50, pERK 1/2 inhibition
[12] = tested on: pAKT; assay: Western immunoblotting densitometry, pAKT, OVCAR-3 cells; assay type: cell-based, human; settings: 25 μM; for ratio [pAKT]/[GAPDH] band intensity: OVCAR-3 cells; for ratio [pAKT]/[GAPDH] band intensity, single blot (panel A): panel A upper set, cell line not given, control ratio 1.21
[13] = tested on: OVCAR-5 cancer cell line
[14] = tested on: AKT1,2 phosphorylation; assay: AKT phosphorylation ELISA, OVCAR-3 cells; assay type: cell-based, human; settings: Michaelis Menten model
[15] = read-out: GI50 (50% Growth Inhibition)
[16] = read-out: IC50 (cytotoxic effect)

C[C@]12CC[C@H]3[C@@H](CCC4=CC(=O)NCC[C@@]43C)[C@@H]1CC[C@@H]2OC(=O)CCOc1ccc(N(CCCl)CCCl)cc1 [ENGA-L06E, 5a,7a-dimethyl-2-oxo-2,3,4,5,5a,5b,6,7,7a,8,9,10,10a,10b,11,12-hexa decahydrocyclopenta [5, 6] naphtho [1,2-d] azepin-8-yl 3-(4-(bis(2-chloroethyl)amino)phenoxy) propanoate]
GI50 [1, 15]: 18 ± 0.9 µM | IC50 [1, 16]: 76 ± 7.5 µM | Median Overall Survival (OS) [2]: 112 days | Progression Free Survival (PFS) [2]: 11 days | Response Rate (RR) [2]: 100% | Cures (mice alive for 120 days after tumor inoculation) ([2]; ip): 2/5 | MST (mean survival time) ([2]; ip): 79.6 ± 4.0 p < 0.01 Days | T/C% (mean survival time of treated versus saline controls) ([2]; ip): 195.6% | TI% (Tumor Inhibition) ([2]; ip): 67.6% | size of the primary tumor ([2]; ip): 478 ± 18.3 mm^3 | ratio [pERK1+pERK2]/[GAPDH] band intensity ([3]; 30min, control ratio 1.71): 1.40 | ratio [pERK1+pERK2]/[GAPDH] band intensity ([3]; 1h, control ratio 1.65): 0.96 | ratio [pERK1+pERK2]/[GAPDH] band intensity ([3]; 3h, control ratio 1.99): 1.11 | ratio [pERK1+pERK2]/[GAPDH] band intensity ([3]; 6h, control ratio 1.85): 0.54 | ratio [pERK1+pERK2]/[GAPDH] band intensity ([3]; 12h, control ratio 1.82): 0.49 | ratio [pERK1+pERK2]/[GAPDH] band intensity ([3]; 24h, control ratio 1.92): 0.58 | ratio [pERK1+pERK2]/[GAPDH] band intensity, single blot (panel A) ([3]; 1h, control ratio 1.85): 0.74 | ratio [pERK1+pERK2]/[GAPDH] band intensity, single blot (panel A) ([3]; 3h, control ratio 1.85): 1.02 | TGI (Total Growth Inhibition) [4]: 52 ± 3.3 μΜ | GI50 [5, 15]: 22 ± 0.9 µM | IC50 [5, 16]: 43 ± 2.9 µM | Vmax ± SE, pAKT 1/2 inhibition ([6]; 15 min): 57.76 ± 3.49 | Vmax ± SE, pAKT 1/2 inhibition ([6]; 30 min): 59.24 ± 0.49 | Vmax ± SE, pAKT 1/2 inhibition ([6]; 60 min): 62.49 ± 0.25 | IC50 ([6]; 0.25 h, 15 min): > 50 µM | IC50 ([6]; 0.5 h, 30 min): 49.8 µM | IC50 ([6]; 1 h, 60 min): 29.5 µM | LD10 [7]: 120 mg/kg | GI50 [8, 15]: 12 ± 0.7 µM | IC50 [8, 16]: 40 ± 3.5 µM | GI50 [9, 15]: 25 ± 1.4 µM | IC50 [9, 16]: 65 ± 3.4 µM | Vmax ± SE, pERK 1/2 inhibition ([10]; 15 min): 76.21 ± 2.11 | Vmax ± SE, pERK 1/2 inhibition ([10]; 60 min): 89.63 ± 2.53 | IC50 ([10]; UWB1289, 0.25 h, 15 min): 6.81 µM | IC50 ([10]; UWB1289, 0.5 h, 30 min): 4.12 µM | IC50 ([10]; UWB1289, 1 h, 60 min): 3.53 µM | Vmax ± SE, pERK 1/2 inhibition ([11]; 15 min): 53.57 ± 3.41 | Vmax ± SE, pERK 1/2 inhibition ([11]; 30 min): 80.62 ± 1.98 | Vmax ± SE, pERK 1/2 inhibition ([11]; 60 min): 93.91 ± 3.61 | IC50 ([11]; 0.25 h, 15 min): 49 µM | IC50 ([11]; 0.5 h, 30 min): 14.5 µM | IC50 ([11]; 1 h, 60 min): 12.8 µM | ratio [pAKT]/[GAPDH] band intensity ([12]; 30min, control ratio 1.23): 0.92 | ratio [pAKT]/[GAPDH] band intensity ([12]; 1h, control ratio 1.14): 0.62 | ratio [pAKT]/[GAPDH] band intensity ([12]; 3h, control ratio 1.27): 0.61 | ratio [pAKT]/[GAPDH] band intensity ([12]; 6h, control ratio 1.26): 0.54 | ratio [pAKT]/[GAPDH] band intensity ([12]; 12h, control ratio 1.18): 0.50 | ratio [pAKT]/[GAPDH] band intensity ([12]; 24h, control ratio 1.29): 0.59 | ratio [pAKT]/[GAPDH] band intensity, single blot (panel A) ([12]; 1h): 0.52 | ratio [pAKT]/[GAPDH] band intensity, single blot (panel A) ([12]; 3h): 0.22 | TGI (Total Growth Inhibition) [13]: 42 ± 2.8 μΜ | Vmax ± SE, pAKT 1/2 inhibition ([14]; 15 min): 57.71 ± 5.51 | Vmax ± SE, pAKT 1/2 inhibition ([14]; 30 min): 60.76 ± 2.97
